Numbered stars: 1 amine (or outer) side, 2 acyl side, 3 side chain; on linkers, the order of the positions; unused ones are H or OH. Bridge positions count the residues as written; N and C are the ends. Square brackets hold non-standard residues; d marks the D form. Peptide text beside a SMILES is read from it. * marks the point of attachment. Phe(3-CH2NH2) = O=C([C@H](Cc1cccc(CN[*:3])c1)N[*:1])[*:2]; Phe(2-CONH2) = NC(=O)c1ccccc1C[C@H](N)C(=O)O; Picolinoyl(3,5-F2) = O=C(c1ncc(F)cc1F)*; Imidazole4carbonyl = O=C(c1cnc[nH]1)*; 3Pal = N[C@@H](Cc1cccnc1)C(=O)O; ΔPro = O=C(O)[C@@H]1C=CCN1; X12 = Cc1cccnc1C(=O)*; X1 = O=C(c1ncccc1F)*; X9 = Nc1cccnc1C(=O)*; X10 = O=C(c1nccs1)*; X6 = O=C(c1ccncn1)*
Assays:
[1] = target: T1, hAM2 receptor (CALCRL:RAMP3) (Homo sapiens, UniProt O60896+Q16602); experiment: AM2 receptor antagonist activity measured by cAMP assay (HTRF); type: cell-based; settings: for Emax: % MPE: percent of the maximal possible effect, read-out: hAM2-R Efficacy Antag (%) Ave; for Emax / IC50: agonist human adrenomedullin; for IC50: GeneBLAzer CALCRL:RAMP3-CRE-bla Freestyle 293F cells, read-out: hAM2-R IC50 Ave; for selectivity ratio CGRP/AM2: selectivity ratio for hCGRP over hAM2, calculated from the IC50 values
T1 construct: expressed in transfected cells; host or cells: GeneBLAzer CALCRL:RAMP3-CRE-bla Freestyle 293F
T1 sequence (Q16602 23-461): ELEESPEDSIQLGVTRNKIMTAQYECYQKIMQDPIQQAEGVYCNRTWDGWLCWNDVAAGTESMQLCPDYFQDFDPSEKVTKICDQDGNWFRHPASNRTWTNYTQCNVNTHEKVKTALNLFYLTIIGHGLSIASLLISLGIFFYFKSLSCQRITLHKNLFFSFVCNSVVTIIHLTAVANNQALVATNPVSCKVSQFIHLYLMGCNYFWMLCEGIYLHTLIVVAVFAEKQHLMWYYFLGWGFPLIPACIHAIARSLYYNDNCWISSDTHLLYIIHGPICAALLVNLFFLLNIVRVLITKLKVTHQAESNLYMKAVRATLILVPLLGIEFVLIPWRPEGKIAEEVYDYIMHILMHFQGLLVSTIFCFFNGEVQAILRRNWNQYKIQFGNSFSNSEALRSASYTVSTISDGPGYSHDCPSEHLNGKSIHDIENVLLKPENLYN
T1 sequence (O60896 24-148): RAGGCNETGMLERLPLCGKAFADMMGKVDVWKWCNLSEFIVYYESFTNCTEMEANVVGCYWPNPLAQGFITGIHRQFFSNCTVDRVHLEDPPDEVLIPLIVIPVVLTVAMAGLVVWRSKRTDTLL
Procedure: Antagonist activity for the adrenomedullin receptor AM2 was determined using the method described in Example 6 above, with the following modifications. Instead of GeneBLAzer® CALCRL:RAMP1-CRE-bla Freestyle™ 293F cells, GeneBLAzer® CALCRL:RAMP3-CRE-bla Freestyle™ 293F cells were used to test activity at hAM2 receptors. The agonist was human adrenomedullin, instead of α-CGRP.
In Table 5, the selectivity ratio for hCGRP over hAM2 is calculated as hCGRP-R IC50/hAM2-R IC50.

[2] = target: T2, hCGRP receptor (CALCRL:RAMP1) (Homo sapiens, UniProt O60894+Q16602); experiment: CGRP receptor antagonist activity measured by cAMP assay (HTRF); type: cell-based; settings: agonist human α-CGRP; for Emax: % MPE: percent of the maximal possible effect, read-out: hCGRP-R Efficacy Antag (%) Ave; for IC50: GeneBLAzer CALCRL:RAMP1-CRE-bla Freestyle 293F cells, 30 minutes, read-out: hCGRP-R IC50 Ave
T2 construct: host or cells: GeneBLAzer CALCRL:RAMP1-CRE-bla Freestyle 293F
T2 sequence (Q16602 23-461): as the sequence (Q16602 23-461) above
T2 sequence (O60894 27-148): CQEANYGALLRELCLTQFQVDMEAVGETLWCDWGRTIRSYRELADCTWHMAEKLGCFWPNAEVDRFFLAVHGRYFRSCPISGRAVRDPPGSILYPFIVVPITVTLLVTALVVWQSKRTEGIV
Procedure: Example 6: CGRP Receptor Antagonist Activity Measured by cAMP Assay
CGRP receptor agonists increase intracellular cyclic adenosine mono-phosphate (cAMP). CGRP receptor antagonists can reduce the agonist effect. Antagonist activity was assessed by measurement of cyclic adenosine mono-phosphate (cAMP) using cell line stably expressing the hCGRP receptor (GeneBLAzer® CALCRL:RAMP1-CRE-bla Freestyle™ 293F, Invitrogen). hCGRP receptor expressing cells were maintained in DMEM high-glucose with GlutaMAX™ containing 10% (v/v) FBS, 0.1 mM NEAA, 25 mM HEPES, 5 ug/ml Blasticidin, 100 ug/ml Hygromycin, and 400 ug/ml Geneticin at 37° C. under 5% CO2 in a humidified atmosphere. For cAMP measurement, cells were washed once with 5 ml 1×PBS, cell maintenance media was replaced with compound buffer ((CB): DMEM containing 0.1% BSA and 0.5 mM IBMX), and flasks were incubated for 1 hour at 37° C. under 5% CO2 in a humidified atmosphere. Cells were removed from culture flasks using non-enzymatic cell dissociation buffer and harvested in CB. The reaction was performed in 384 well white small volume plates (Greiner) at a density of 10,000 cells/well. Cells were exposed to varying concentrations of antagonist compounds for 30 minutes in the presence of a fixed concentration of agonist (human α-CGRP). cAMP levels were measured using an HTRF (homogeneous time resolved fluorescence)-based competitive cAMP immunoassay (cAMP Dynamic 2 Kit, Cisbio), according to the manufacturer's instructions. […] Reported parameters include antagonist potency IC50 (the concentration causing half-maximal inhibition of the agonist response for antagonist compounds) and efficacy (% MPE: percent of the maximal possible effect).

| SMILES | Emax [1] | IC50 [1] | selectivity ratio CGRP/AM2 [1] | Emax [2] | IC50 [2] |
| --- | --- | --- | --- | --- | --- |
| CC(C)[C@@H]1NC(=O)[C@H](CC(=O)O)NC(=O)[C@H](CCCNC(=N)N)NC(=O)[C@@H](NC(=O)[C@H](Cc2ccccc2C(N)=O)NC(=O)[C@H](NC(=O)c2ccncn2)C(C)C)CSSC[C@@H](C(=O)N[C@@H](Cc2cccnc2)C(N)=O)NC(=O)[C@H](Cc2cccc(CN)c2)NC(=O)[C@@H]2C=CCN2C(=O)CNC1=O [Compound 31, Pyrimidine-4-carbonyl-D-Val-Phe(2-Cbm)-c(Cys-Arg-Asp-Val-Gly-Dhp-Phe(3-CH2NH2)-Cys)-3Pal-NH2] (X6-[dV][Phe(2-CONH2)]CRDVG[ΔPro][Phe(3-CH2NH2)]C[3Pal]-NH2; disulfide 3-10) | 100% | 46 nM | 390 | 100% | 0.12 nM |
| CC(C)[C@@H]1NC(=O)[C@H](CC(=O)O)NC(=O)[C@H](CCCNC(=N)N)NC(=O)[C@@H](NC(=O)[C@H](Cc2ccccc2C(N)=O)NC(=O)[C@H](NC(=O)c2ncccc2F)C(C)C)CSSC[C@@H](C(=O)N[C@@H](Cc2cccnc2)C(N)=O)NC(=O)[C@H](Cc2cccc(CN)c2)NC(=O)[C@@H]2C=CCN2C(=O)CNC1=O [Compound 32, Picolinoyl(3-F)-D-Val-Phe(2-Cbm)-c(Cys-Arg-Asp-Val-Gly-Dhp-Phe(3-CH2NH2)-Cys)-3Pal-NH2] (X1-[dV][Phe(2-CONH2)]CRDVG[ΔPro][Phe(3-CH2NH2)]C[3Pal]-NH2; disulfide 3-10) | 99% | 61 nM | 498 | 100% | 0.12 nM |
| CC(C)[C@@H]1NC(=O)[C@H](CC(=O)O)NC(=O)[C@H](CCCNC(=N)N)NC(=O)[C@@H](NC(=O)[C@H](Cc2ccc(O)cc2)NC(=O)[C@H](NC(=O)c2nccs2)C(C)C)CSSC[C@@H](C(=O)N[C@@H](Cc2cccnc2)C(N)=O)NC(=O)[C@H](Cc2ccccc2)NC(=O)[C@@H]2CCCN2C(=O)CNC1=O [Compound 33] (X10-[dV]YCRDVGPFC[3Pal]-NH2; disulfide 3-10) | 100% | 11 nM | 117 | 100% | 0.1 nM |
| Cc1cccnc1C(=O)N[C@@H](C(=O)N[C@@H](Cc1ccc(O)cc1)C(=O)N[C@H]1CSSC[C@@H](C(=O)N[C@@H](Cc2cccnc2)C(N)=O)NC(=O)[C@H](Cc2ccccc2)NC(=O)[C@@H]2CCCN2C(=O)CNC(=O)[C@H](C(C)C)NC(=O)[C@H](CC(=O)O)NC(=O)[C@H](CCCNC(=N)N)NC1=O)C(C)C [Compound 34] (X12-[dV]YCRDVGPFC[3Pal]-NH2; disulfide 3-10) | 100% | 7.9 nM | 58 | 100% | 0.14 nM |

Now from value to compound:

| Emax [1] | IC50 [1] | selectivity ratio CGRP/AM2 [1] | Emax [2] | IC50 [2] | SMILES |
| --- | --- | --- | --- | --- | --- |
| 101% | 33 nM | 580 | 100% | 0.06 nM | CC(C)[C@@H]1NC(=O)[C@H](CC(=O)O)NC(=O)[C@H](CCCNC(=N)N)NC(=O)[C@@H](NC(=O)[C@H](Cc2ccc(O)cc2)NC(=O)[C@H](NC(=O)c2ncc(F)cc2F)C(C)C)CSSC[C@@H](C(=O)N[C@@H](Cc2cccnc2)C(N)=O)NC(=O)[C@H](Cc2ccccc2)NC(=O)[C@@H]2CCCN2C(=O)CNC1=O [Compound 35] ({Picolinoyl(3,5-F2)}-[dV]YCRDVGPFC[3Pal]-NH2; disulfide 3-10) |
| 101% | 16 nM | 93 | 100% | 0.17 nM | CC(C)[C@@H]1NC(=O)[C@H](CC(=O)O)NC(=O)[C@H](CCCNC(=N)N)NC(=O)[C@@H](NC(=O)[C@H](Cc2ccc(O)cc2)NC(=O)[C@H](NC(=O)c2ncccc2N)C(C)C)CSSC[C@@H](C(=O)N[C@@H](Cc2cccnc2)C(N)=O)NC(=O)[C@H](Cc2ccccc2)NC(=O)[C@@H]2CCCN2C(=O)CNC1=O [Compound 36] (X9-[dV]YCRDVGPFC[3Pal]-NH2; disulfide 3-10) |
| 100% | 379 nM | 2295 | 100% | 0.17 nM | CC(C)[C@@H]1NC(=O)[C@H](CC(=O)O)NC(=O)[C@H](CCCNC(=N)N)NC(=O)[C@@H](NC(=O)[C@H](Cc2ccc(O)cc2)NC(=O)[C@H](NC(=O)c2cnc[nH]2)C(C)C)CSSC[C@@H](C(=O)N[C@@H](Cc2cccnc2)C(N)=O)NC(=O)[C@H](Cc2ccccc2)NC(=O)[C@@H]2CCCN2C(=O)CNC1=O [Compound 37] (Imidazole4carbonyl-[dV]YCRDVGPFC[3Pal]-NH2; disulfide 3-10) |
